# Measurements published in patent publication US20190330224A1, “ACC INHIBITORS AND USES THEREOF” (Gilead Apollo, LLC, priority 2015, published 2019).
# Tests used:
# Human ACC2 = Human ACC2 (Homo sapiens, UniProt O00763); experiment: In vitro ACC2 inhibition assay (ADP-Glo), human ACC2; format: biochemical; conditions: 5 nM ACC2, 20 μM ATP, 20 μM acetyl-CoA
# Fungal ACC2 = Fungal ACC2 (UniProt Q00955); conditions: read-out: Fungal ACC2 (IC50, in vitro ACC2 inhibition)
# [1] = test system: C. parapsilosis ATCC 22019; experiment: Anti-Fungal Activity Assay (broth microtiter MIC), C. parapsilosis; format: cell-based, Candida parapsilosis; conditions: Lodderomyces parapsilosis, ATCC22019, 48 h, 3 replicates; MIC recorded at 48 h; read-out: MIC C. parapsilosis ATCC 22019
# Procedure, shortened: (§1)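 MIC by visual comparison with growth control, read at 48 h (soraphen also at 24 h). Inoculum: colonies from overnight Sabouraud dextrose agar plates at 35° C, suspended in RPMI 1640+MOPS, density from standard curves. Microtiter broth dilution per CLSI M27-A3; compounds from 1 mg/mL DMSO stocks.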
# C. krusei ATCC 6258 = experiment: Anti-Fungal Activity Assay (broth microtiter MIC), C. krusei; format: cell-based, Candida krusei; conditions: Pichia kudriavzevii, ATCC6258, 48 h, 3 replicates; MIC recorded at 48 h; read-out: MIC C. krusei ATCC 6258
# Procedure, shortened: as §1
# C. albicans ATCC 90028 = experiment: Anti-Fungal Activity Assay (broth microtiter MIC), C. albicans; format: cell-based, Candida albicans; conditions: Candida albicans, ATCC90028, 48 h, 3 replicates; MIC recorded at 48 h; read-out: MIC C. albicans ATCC 90028
# Procedure, shortened: as §1
# Chain of Fungal ACC2 (Q00955 whole entry): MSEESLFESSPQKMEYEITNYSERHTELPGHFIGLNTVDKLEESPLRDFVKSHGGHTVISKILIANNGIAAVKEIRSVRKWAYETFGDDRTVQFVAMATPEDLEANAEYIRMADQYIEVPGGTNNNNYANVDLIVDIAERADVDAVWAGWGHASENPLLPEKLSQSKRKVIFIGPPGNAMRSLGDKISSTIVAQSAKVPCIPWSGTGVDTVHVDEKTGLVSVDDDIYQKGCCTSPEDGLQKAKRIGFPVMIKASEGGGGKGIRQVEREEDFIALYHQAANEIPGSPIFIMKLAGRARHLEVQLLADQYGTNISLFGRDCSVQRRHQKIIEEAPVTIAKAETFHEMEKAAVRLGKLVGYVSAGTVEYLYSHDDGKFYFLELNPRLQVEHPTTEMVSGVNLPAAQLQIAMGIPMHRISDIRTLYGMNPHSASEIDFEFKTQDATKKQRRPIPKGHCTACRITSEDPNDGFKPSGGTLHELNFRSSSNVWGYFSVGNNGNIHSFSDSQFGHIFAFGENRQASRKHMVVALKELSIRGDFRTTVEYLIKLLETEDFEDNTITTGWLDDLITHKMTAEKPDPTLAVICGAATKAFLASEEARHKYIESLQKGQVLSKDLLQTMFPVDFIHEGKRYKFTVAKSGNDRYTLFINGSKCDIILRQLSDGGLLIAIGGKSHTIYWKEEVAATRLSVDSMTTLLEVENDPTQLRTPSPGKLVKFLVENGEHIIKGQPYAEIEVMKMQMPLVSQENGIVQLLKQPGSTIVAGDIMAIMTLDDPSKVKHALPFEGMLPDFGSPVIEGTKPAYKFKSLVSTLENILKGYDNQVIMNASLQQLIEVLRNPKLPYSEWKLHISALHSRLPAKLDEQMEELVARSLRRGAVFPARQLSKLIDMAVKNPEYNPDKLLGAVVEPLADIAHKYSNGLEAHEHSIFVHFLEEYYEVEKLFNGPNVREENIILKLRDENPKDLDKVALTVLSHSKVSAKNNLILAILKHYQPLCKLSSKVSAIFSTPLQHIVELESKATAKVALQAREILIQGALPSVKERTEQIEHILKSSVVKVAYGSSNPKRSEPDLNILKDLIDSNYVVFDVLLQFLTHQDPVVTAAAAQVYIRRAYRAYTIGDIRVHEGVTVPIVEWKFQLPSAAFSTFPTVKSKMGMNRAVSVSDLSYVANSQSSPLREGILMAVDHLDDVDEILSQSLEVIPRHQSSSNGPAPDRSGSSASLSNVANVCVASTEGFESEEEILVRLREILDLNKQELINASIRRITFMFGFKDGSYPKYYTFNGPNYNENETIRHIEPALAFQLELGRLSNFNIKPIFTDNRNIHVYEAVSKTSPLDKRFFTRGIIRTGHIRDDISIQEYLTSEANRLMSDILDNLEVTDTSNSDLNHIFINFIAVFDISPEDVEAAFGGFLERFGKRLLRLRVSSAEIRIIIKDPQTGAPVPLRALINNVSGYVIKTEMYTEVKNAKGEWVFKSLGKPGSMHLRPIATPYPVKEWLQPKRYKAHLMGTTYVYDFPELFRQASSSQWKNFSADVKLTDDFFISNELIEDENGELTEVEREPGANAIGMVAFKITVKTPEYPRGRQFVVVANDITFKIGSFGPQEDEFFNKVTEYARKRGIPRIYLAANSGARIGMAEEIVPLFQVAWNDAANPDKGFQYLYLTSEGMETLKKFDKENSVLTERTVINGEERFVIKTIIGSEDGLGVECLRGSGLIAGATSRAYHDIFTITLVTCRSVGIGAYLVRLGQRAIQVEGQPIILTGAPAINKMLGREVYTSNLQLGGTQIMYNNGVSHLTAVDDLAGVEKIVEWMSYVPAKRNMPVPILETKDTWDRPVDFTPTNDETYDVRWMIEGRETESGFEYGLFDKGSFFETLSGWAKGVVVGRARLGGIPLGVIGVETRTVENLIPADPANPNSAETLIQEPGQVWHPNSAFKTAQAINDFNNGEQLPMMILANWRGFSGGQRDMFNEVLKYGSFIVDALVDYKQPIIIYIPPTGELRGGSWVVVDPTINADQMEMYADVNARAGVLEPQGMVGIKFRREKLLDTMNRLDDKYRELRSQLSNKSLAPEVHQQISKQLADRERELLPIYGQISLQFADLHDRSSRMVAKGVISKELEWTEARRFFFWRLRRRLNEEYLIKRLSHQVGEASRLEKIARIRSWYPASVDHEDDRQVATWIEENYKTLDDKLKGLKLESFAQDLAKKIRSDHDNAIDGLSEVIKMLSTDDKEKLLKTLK
# Chain of Human ACC2 (O00763 whole entry): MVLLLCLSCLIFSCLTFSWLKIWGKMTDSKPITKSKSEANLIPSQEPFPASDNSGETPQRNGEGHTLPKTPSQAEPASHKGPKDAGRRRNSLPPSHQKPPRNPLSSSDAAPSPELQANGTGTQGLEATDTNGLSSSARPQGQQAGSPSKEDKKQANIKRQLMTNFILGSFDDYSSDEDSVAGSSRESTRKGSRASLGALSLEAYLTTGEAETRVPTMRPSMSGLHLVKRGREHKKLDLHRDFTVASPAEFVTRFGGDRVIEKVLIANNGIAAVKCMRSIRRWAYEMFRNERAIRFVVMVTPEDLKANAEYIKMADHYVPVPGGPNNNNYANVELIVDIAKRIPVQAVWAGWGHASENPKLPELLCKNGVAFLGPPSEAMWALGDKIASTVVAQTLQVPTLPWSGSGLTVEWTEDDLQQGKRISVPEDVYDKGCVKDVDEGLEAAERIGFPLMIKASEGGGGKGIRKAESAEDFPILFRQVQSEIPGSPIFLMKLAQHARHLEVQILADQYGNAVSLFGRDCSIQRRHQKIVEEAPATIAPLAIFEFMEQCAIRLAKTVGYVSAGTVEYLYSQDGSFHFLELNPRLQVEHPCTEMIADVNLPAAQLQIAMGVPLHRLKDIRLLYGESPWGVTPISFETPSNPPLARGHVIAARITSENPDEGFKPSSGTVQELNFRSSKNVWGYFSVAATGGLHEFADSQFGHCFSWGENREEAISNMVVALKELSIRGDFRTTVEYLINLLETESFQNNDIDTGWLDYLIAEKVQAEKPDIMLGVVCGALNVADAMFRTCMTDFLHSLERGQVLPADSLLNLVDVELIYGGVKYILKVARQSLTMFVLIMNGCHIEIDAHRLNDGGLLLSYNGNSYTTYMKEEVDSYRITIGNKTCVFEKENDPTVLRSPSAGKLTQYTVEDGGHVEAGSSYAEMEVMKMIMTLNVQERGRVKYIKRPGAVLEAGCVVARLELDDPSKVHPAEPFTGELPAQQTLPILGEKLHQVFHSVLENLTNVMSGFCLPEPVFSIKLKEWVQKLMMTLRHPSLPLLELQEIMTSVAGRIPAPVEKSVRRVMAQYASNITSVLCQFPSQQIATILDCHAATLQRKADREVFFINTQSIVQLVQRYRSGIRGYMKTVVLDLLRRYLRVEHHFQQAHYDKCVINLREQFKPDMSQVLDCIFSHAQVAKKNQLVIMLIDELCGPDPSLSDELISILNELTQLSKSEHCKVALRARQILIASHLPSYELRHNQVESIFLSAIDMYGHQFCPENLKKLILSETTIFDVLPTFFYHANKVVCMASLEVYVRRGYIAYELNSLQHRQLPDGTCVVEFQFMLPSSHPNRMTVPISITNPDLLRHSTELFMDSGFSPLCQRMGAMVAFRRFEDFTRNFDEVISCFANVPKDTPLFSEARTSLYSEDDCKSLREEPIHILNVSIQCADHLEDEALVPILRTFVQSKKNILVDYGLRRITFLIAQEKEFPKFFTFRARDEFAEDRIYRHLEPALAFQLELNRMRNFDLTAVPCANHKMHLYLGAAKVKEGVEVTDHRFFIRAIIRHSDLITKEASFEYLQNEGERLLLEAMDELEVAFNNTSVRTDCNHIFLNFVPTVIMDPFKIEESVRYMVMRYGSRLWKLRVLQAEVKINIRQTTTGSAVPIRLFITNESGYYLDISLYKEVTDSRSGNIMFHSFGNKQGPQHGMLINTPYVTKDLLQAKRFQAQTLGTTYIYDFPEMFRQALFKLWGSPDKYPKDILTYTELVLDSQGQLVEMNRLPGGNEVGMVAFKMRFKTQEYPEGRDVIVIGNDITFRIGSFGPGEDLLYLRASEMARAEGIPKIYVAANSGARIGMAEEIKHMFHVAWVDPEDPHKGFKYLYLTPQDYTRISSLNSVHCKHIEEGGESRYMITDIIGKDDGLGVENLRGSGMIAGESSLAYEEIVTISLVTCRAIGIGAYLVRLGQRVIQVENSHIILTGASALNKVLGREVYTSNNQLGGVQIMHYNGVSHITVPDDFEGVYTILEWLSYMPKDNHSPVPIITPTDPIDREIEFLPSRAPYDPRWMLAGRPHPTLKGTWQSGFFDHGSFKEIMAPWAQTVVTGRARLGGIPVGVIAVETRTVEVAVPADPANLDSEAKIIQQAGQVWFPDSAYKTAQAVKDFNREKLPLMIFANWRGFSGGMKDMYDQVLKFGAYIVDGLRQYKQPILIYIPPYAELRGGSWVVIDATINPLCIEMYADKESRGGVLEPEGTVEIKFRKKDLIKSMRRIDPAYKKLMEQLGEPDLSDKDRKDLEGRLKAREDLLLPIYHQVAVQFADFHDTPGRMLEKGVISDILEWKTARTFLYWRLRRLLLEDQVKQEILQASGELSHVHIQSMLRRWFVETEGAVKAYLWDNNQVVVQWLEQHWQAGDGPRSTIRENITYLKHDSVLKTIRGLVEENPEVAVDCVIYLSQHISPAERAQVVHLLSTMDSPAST
Compound,IC50 (Human ACC2),IC50 (Fungal ACC2),MIC [1],MIC (C. krusei ATCC 6258),MIC (C. albicans ATCC 90028)
"COc1ccc(F)cc1[C@H](Cn1c(=O)n([C@@H]2CCN(C)C2=O)c(=O)c2c(C)c(-n3nccn3)sc21)OCCC(=O)O [Compound I-175, 3-((R)-1-(5-fluoro-2-methoxyphenyl)-2-(5-methyl-3-((R)-1-methyl-2-oxopyrrolidin-3-yl)-2,4-dioxo-6-(2H-1,2,3-triazol-2-yl)-3,4-dihydro-thieno[2,3-d]pyrimidin-1(2H)-yl)ethoxy)propanoic acid]",10 to 100 nM,0.7 to 2 nM,2.1 to 4 mg/L,2.1 to 4 mg/L,2.1 to 4 mg/L
"COc1ccc(F)cc1[C@H](Cn1c(=O)n([C@H]2CCN(C)C2=O)c(=O)c2c(C)c(-n3nccn3)sc21)OCCC(=O)O [Compound I-176, 3-((R)-1-(5-fluoro-2-methoxyphenyl)-2-(5-methyl-3-((S)-1-methyl-2-oxopyrrolidin-3-yl)-2,4-dioxo-6-(2H-1,2,3-triazol-2-yl)-3,4-dihydrothieno[2,3-d]pyrimidin-1 (2H)-yl)ethoxy)propanoic acid]",10 to 100 nM,2 to 10 nM,2.1 to 4 mg/L,2.1 to 4 mg/L,2.1 to 4 mg/L
"COc1ccc(F)cc1[C@H](Cn1c(=O)n([C@H]2CCCNC2=O)c(=O)c2c(C)c(-n3nccn3)sc21)OCCC(=O)O [Compound I-177, 3-((R)-1-(5-fluoro-2-methoxyphenyl)-2-(5-methyl-2,4-dioxo-3-((S)-2-oxopiperidin-3-yl)-6-(2H-1,2,3-triazol-2-yl)-3,4-dihydrothieno[2,3-d]pyrimidin-1 (2H)-yl)ethoxy)propanoic acid]",10 to 100 nM,2 to 10 nM,2.1 to 4 mg/L,2.1 to 4 mg/L,2.1 to 4 mg/L
"COc1ccc(F)cc1[C@H](Cn1c(=O)n([C@@H]2CCN(C)C2=O)c(=O)c2c(C)c(-n3cccn3)sc21)OCCC(=O)O [Compound I-179, 3-((R)-1-(5-fluoro-2-methoxyphenyl)-2-(5-methyl-3-((R)-1-methyl-2-oxopyrrolidin-3-yl)-2,4-dioxo-6-(H-pyrazol-1-yl)-3,4-dihydrothieno[2,3-d]pyrimidin-1 (2H)-yl)ethoxy)propanoic acid]",10 to 100 nM,2 to 10 nM,2.1 to 4 mg/L,2.1 to 4 mg/L,2.1 to 4 mg/L
"COc1ccc(F)cc1[C@H](Cn1c(=O)n([C@H]2CCN(C)C2=O)c(=O)c2c(C)c(-n3cccn3)sc21)OCCC(=O)O [Compound I-180, 3-((R)-1-(5-fluoro-2-methoxyphenyl)-2-(5-methyl-3-((S)-1-methyl-2-oxopyrrolidin-3-yl)-2,4-dioxo-6-(1H-pyrazol-1-yl)-3,4-dihydrothieno[2,3-d]pyrimidin-1(2H)-yl)ethoxy)propanoic acid]",100 to 1000 nM,10 to 100 nM,2.1 to 4 mg/L,2.1 to 4 mg/L,2.1 to 4 mg/L
"COc1ccc(F)cc1[C@H](Cn1c(=O)n([C@@H]2CCN(C)C2=O)c(=O)c2c(C)c(-n3cccn3)sc21)O[C@H]1CC[C@@H](O)CC1 [Compound I-181, 1-((R)-2-(5-fluoro-2-methoxyphenyl)-2-(((I s, 4S)-4-hydroxycyclohexyl)oxy)ethyl)-5-methyl-3-((R)-1-methyl-2-oxopyrrolidin-3-yl)-6-(1H-pyrazol-1-yl)thieno[2,3-d]pyrimidine-2,4(1H,3H)-dione]",2 to 10 nM,0.7 to 2 nM,1.1 to 2 mg/L,1.1 to 2 mg/L,0.25 to 1 mg/L
COc1ccc(F)cc1[C@H](Cn1c(=O)n([C@H]2CCN(C)C2=O)c(=O)c2c(C)c(-n3cccn3)sc21)O[C@H]1CC[C@@H](O)CC1 [Compound I-182],10 to 100 nM,0.7 to 2 nM,2.1 to 4 mg/L,2.1 to 4 mg/L,2.1 to 4 mg/L
"COc1ccc(F)cc1[C@H](Cn1c(=O)n([C@@H]2CCN(C)C2=O)c(=O)c2c(C)c(-n3nccn3)sc21)O[C@H]1C[C@@H](O)C1 [Compound I-183, 1-((R)-2-(5-fluoro-2-methoxyphenyl)-2-((1s, 3S)-3-hydroxycyclobutoxy)ethyl)-5-methyl-3-((R)-1-methyl-2-oxopyrrolidin-3-yl)-6-(2H-1,2,3-triazol-2-yl)thieno[2,3-d]pyrimidine-2,4(1H,3H)-dione]",2 to 10 nM,0.7 to 2 nM,1.1 to 2 mg/L,0.25 to 1 mg/L,0.25 to 1 mg/L
"COc1ccc(F)cc1[C@H](Cn1c(=O)n([C@@H]2CCNC2=O)c(=O)c2c(C)c(-n3nccn3)sc21)O[C@H]1C[C@@H](O)C1 [Compound I-184, 1-((R)-2-(5-fluoro-2-methoxyphenyl)-2-((1s, 3S)-3-hydroxycyclobutoxy)ethyl)-5-methyl-3-((R)-2-oxopyrrolidin-3-yl)-6-(2H-1-1,2,3-triazol-2-yl)thieno[2,3-d]pyrimidine-2,4(1H,3H)-dione]",2 to 10 nM,0.7 to 2 nM,2.1 to 4 mg/L,2.1 to 4 mg/L,2.1 to 4 mg/L
"COc1ccc(F)cc1[C@H](Cn1c(=O)n([C@@H]2CCNC2=O)c(=O)c2c(C)c(-n3nccn3)sc21)O[C@H]1C[C@H](O)C1 [Compound I-186, 1-((R)-2-(5-fluoro-2-methoxyphenyl)-2-((1r,3R)-3-hydroxycyclobutoxy)ethyl)-5-methyl-3-((R)-2-oxopyrrolidin-3-yl)-6-(2H-1,2,3-triazol-2-yl)thieno[2,3-d]pyrimidine-2,4(1H,3H)-dione]",2 to 10 nM,0.7 to 2 nM,2.1 to 4 mg/L,2.1 to 4 mg/L,2.1 to 4 mg/L
"COc1ccc(F)cc1[C@H](Cn1c(=O)n([C@H]2CCNC2=O)c(=O)c2c(C)c(-n3nccn3)sc21)O[C@H]1CC[C@@H](O)CC1 [Compound I-187, 1-((R)-2-(5-fluoro-2-methoxyphenyl)-2-(((1 s, 4S)-4-hydroxycyclohexyl)oxy)ethyl)-5-methyl-3-((S)-2-oxopyrrolidin-3-yl)-6-(2H-1,2,3-triazol-2-yl)thieno[2,3-d]pyrimidine-2,4(1H,3H)-dione]",2 to 10 nM,0.7 to 2 nM,2.1 to 4 mg/L,2.1 to 4 mg/L,2.1 to 4 mg/L
"COc1ccc(F)cc1[C@H](Cn1c(=O)n([C@@H]2CCNC2=O)c(=O)c2c(C)c(-n3nccn3)sc21)O[C@H]1CC[C@@H](O)CC1 [Compound I-188, 1-((R)-2-(5-fluoro-2-methoxyphenyl)-2-(((1 s, 4S)-4-hydroxycyclohexyl)oxy)ethyl)-5-methyl-3-((R)-2-oxopyrrolidin-3-yl)-6-(2H-1,2,3-triazol-2-yl)thieno[2,3-d]pyrimidine-2,4(1H3H)-dione]",2 to 10 nM,0.7 to 2 nM,1.1 to 2 mg/L,0.25 to 1 mg/L,0.25 to 1 mg/L
"Cc1c(-n2nccn2)sc2c1c(=O)n([C@@H]1CCN(C)C1=O)c(=O)n2C[C@H](O[C@H]1CC[C@@H](O)CC1)c1cc(F)ccc1O [Compound I-189, 1-((R)-2-(5-fluoro-2-hydroxyphenyl)-2-(((1s, 4S)-4-hydroxycyclohexyl)oxy)ethyl)-5-methyl-3-((R)-1-methyl-2-oxopyrrolidin-3-yl)-6-(2H-1,2,3-triazol-2-yl)thieno[2,3-d]pyrimidine-2,4(1H, 3H)-dione]",2 to 10 nM,0.7 to 2 nM,2.1 to 4 mg/L,2.1 to 4 mg/L,2.1 to 4 mg/L
"Cc1c(-n2nccn2)sc2c1c(=O)n([C@H]1CCN(C)C1=O)c(=O)n2C[C@H](O[C@H]1CC[C@@H](O)CC1)c1cc(F)ccc1O [Compound I-190, 1-((R)-2-(5-fluoro-2-hydroxyphenyl)-2-(((1 s, 4S)-4-hydroxycyclohexyl)oxy)ethyl)-5-methyl-3-((S)-1-methyl-2-oxopyrrolidin-3-yl)-6-(2H-1,2,3-triazol-2-yl)thieno[2,3-d]pyrimidine-2,4(1H,3H)-dione]",10 to 100 nM,0.7 to 2 nM,2.1 to 4 mg/L,2.1 to 4 mg/L,2.1 to 4 mg/L
